For 15 compounds, IC50 results are on record in patent US20220249454A1, “INHIBITORS OF MONOCARBOXYLATE TRANSPORTERS FOR CANCER IMMUNOTHERAPY” (NIROGY THERAPEUTICS, INC., priority 2021, published 2022).

What is called IC50 is the concentration that inhibits the measured activity by half. A low value points to higher potency.

SMILES strings stand for the structures. Some results are limits rather than exact numbers.

The subject of the experiment is panel of solid and haemotological tumor cell lines (e.g., Hs578t, SiHa, MDA-MB-231). The experiment is described as follows: MTS cell proliferation assay (cytotoxicity). Format: cell-based. Particulars: Table 1 (Group 1), 72-96 hours, 10 mM lactate medium or RPMI 1640 medium, cell line not stated. Here is the method: The anti-proliferation effect of MCT inhibition was investigated across a panel of solid and haemotological tumor cell lines. Cells were routinely cultured in their appropriate growth medium. On day 1, between 10,000-25,000 cells/well (e.g., Hs578t: 15,000 cells/well, SiHa: 10,000 cells/well, and MDA-MB-231: 25,000 cells/well) were plated into 96-well plates. 100 μL. of phosphate buffered saline solution was added to the external wells to prevent media evaporation. Plates were incubated in growth medium overnight at 37° C. in the presence of 5% CO2. On day 2, dry weight compound stocks were dissolved to a concentration of 10 mM in 100% DMSO. Compounds were further diluted in the assay medium; 10 mM lactate medium (without glucose, pyruvate, and glutamine) or RPMI 1640 medium (without pyruvate and glutamine) to generate a final dose range of 1 nM to 10 μM. Growth medium in the 96-well plate was replaced with the assay medium (10 mM lactate medium or RPMI medium or appropriate medium), and compounds were added to each well in the plate at different concentrations via serial dilution or pre-prepared solutions in assay medium. Plates were then incubated at 37° C. in the presence of 5% CO2 for a further 72-96 hours. On day 2-5, assay media was changed to 100 uL of DMEM/F12 and 20 μL of CellTiter 96 AQ MTS reagent was added to each well and the plate was returned to the incubator for 1-2 hours. MTS is bioreduced by NADPH or NADH produced by dehydrogenase enzymes in metabolically active cells into a coloured formazan product that is soluble in tissue culture medium. The amount of coloured formazan product is directly proportional to the number of living cells in culture. The absorbance of the plates was read on a Spectramax M5e plate reader using […] measurement wavelength. Dose response curves were plotted and IC50 values were calculated using GraphPad Prism. The IC50 value is equivalent to the concentration of compound that causes 50% inhibition of growth calculated from the compound treated signal to the vehicle treated signal.
Cytotoxicity of selected compounds is listed in Table 1, where IC50: A=<1 uM; B=1-10 uM; C=>10 uM; and NT=Not Tested.
(In general: Tetrazolium dyes change colour on reduction, which living cells bring about.)
Take `CN(Cc1cccc(F)c1)c1cc2oc(=O)c(C(=O)O)cc2s1` [Compound 1.003, 2-((3-fluorobenzyl)(methyl)amino)-5-oxo-5H-thieno[3,2-b]pyran-6-carboxylic acid]: the IC50 was < 1 µM. As for `COc1cccc(CN(C)c2cc3oc(=O)c(C(=O)O)cc3s2)c1` [Compound 1.004, 2-((3-methoxybenzyl)(methyl)amino)-5-oxo-5H-thieno[3,2-b]pyran-6-carboxylic acid], the IC50 was < 1 µM. With `CN(CC1CCCCC1)c1cc2oc(=O)c(C(=O)O)cc2s1` [Compound 1.005, 2-((cyclohexylmethyl)(methyl)amino)-5-oxo-5H-thieno[3,2-b]pyran-6-carboxylic acid] the figure was < 1 µM; with `CN(Cc1cccc(C(F)(F)F)c1)c1cc2oc(=O)c(C(=O)O)cc2s1` [Compound 1.006, 2-(methyl(3-(trifluoromethyl)benzyl)amino)-5-oxo-5H-thieno[3,2-b]pyran-6-carboxylic acid], < 1 µM; with `CN(Cc1cc(C(F)(F)F)cc(C(F)(F)F)c1)c1cc2oc(=O)c(C(=O)O)cc2s1` [Compound 1.007, 2-((3,5-bis(trifluoromethyl)benzyl)(methyl)amino)-5-oxo-5H-thieno[3,2-b]pyran-6-carboxylic acid], < 1 µM. With `CN(CC1CCOCC1)c1cc2oc(=O)c(C(=O)O)cc2s1` [Compound 1.008, 2-(methyl((tetrahydro-2H-pyran-4-yl)methyl)amino)-5-oxo-5H-thieno[3,2-b]pyran-6-carboxylic acid] the figure was < 1 µM; with `CN(C(=O)C1CCCCC1)c1cc2oc(=O)c(C(=O)O)cc2s1` [Compound 1.010, 2-(N-methylcyclohexanecarboxamido)-5-oxo-5H-thieno[3,2-b]pyran-6-carboxylic acid], < 1 µM.

`CN(C(=O)c1ccc(F)cc1)c1cc2oc(=O)c(C(=O)O)cc2s1` [Compound 1.011, 2-(4-fluoro-N-methylbenzamido)-5-oxo-5H-thieno[3,2-b]pyran-6-carboxylic acid]: the IC50 was < 1 µM. In the case of `CN1CCC(CN(C)c2cc3oc(=O)c(C(=O)O)cc3s2)CC1` [Compound 1.012, 2-(methyl((1-methylpiperidin-4-yl)methyl)amino)-5-oxo-5H-thieno[3,2-b]pyran-6-carboxylic acid] it was < 1 µM; in that of `CN(Cc1cccnc1)c1cc2oc(=O)c(C(=O)O)cc2s1` [Compound 1.013, 2-(methyl(pyridin-3-ylmethyl)amino)-5-oxo-5H-thieno[3,2-b]pyran-6-carboxylic acid], < 1 µM; in that of `CN(Cc1cccs1)c1cc2oc(=O)c(C(=O)O)cc2s1` [Compound 1.014, 2-(methyl(thiophen-2-ylmethyl)amino)-5-oxo-5H-thieno[3,2-b]pyran-6-carboxylic acid], < 1 µM. In the case of `CN(C(=O)c1cccc(C(F)(F)F)c1)c1cc2oc(=O)c(C(=O)O)cc2s1` [Compound 1.015, 2-[Methyl-(3-trifluoromethyl-benzoyl)-amino]-5-oxo-5H-thieno[3,2-b]pyran-6-carboxylic acid] it was < 1 µM; in that of `COc1ccc(C(=O)N(C)c2cc3oc(=O)c(C(=O)O)cc3s2)cc1` [Compound 1.016, 2-[(4-Methoxy-benzoyl)-methyl-amino]-5-oxo-5H-thieno[3,2-b]pyran-6-carboxylic acid], < 1 µM. In the case of `CN(C(=O)C1CCOCC1)c1cc2oc(=O)c(C(=O)O)cc2s1` [Compound 1.018, 2-[Methyl-(tetrahydro-pyran-4-carbonyl)-amino]-5-oxo-5H-thieno[3,2-b]pyran-6-carboxylic acid] it was < 1 µM; in that of `COc1cc(C(=O)N(C)c2cc3oc(=O)c(C(=O)O)cc3s2)ccc1F` [Compound 1.019, 2-[(4-Fluoro-3-methoxy-benzoyl)-methyl-amino]-5-oxo-5H-thieno[3,2-b]pyran-6-carboxylic acid], < 1 µM.
